Series [1] relates to eyes of six rabbits. The note with it: cited from earlier work.
Series [2] deals with rabbit eyes. The settings on record: cited from earlier work.
The conditions of series [3]: approximately 0.5% to 1% added to balanced salt solutions; cited from earlier work.
Series [4] has as its system rabbit skin. The settings on record: undiluted test material; cited from earlier work.
Series [5] deals with skin. The settings on record: 6-day cumulative, cited from earlier work.
The subject of series [6] is human subjects. The settings on record: formulation containing 7.6% of Ethylhexyl Stearate, cited from earlier work.
Series [7] has as its system rabbit's eyes. The note with it: cited from earlier work.
Series [8] deals with demodex mites. The series can be described thus: Presence of demodex mites in eyelash follicles of treated patients. Format: in vivo, demodex folliculorum.
Series [9] has as its system Demodex folliculorum-associated Oculocutaneous Rosacea. The settings on record: oral, child, JAMA Dermatol 2014; cited from earlier work.
For series [10], the system named is eye. The settings on record: human, in vivo. On the procedure:
As this invention is to be used topically, good absorption is achieved by using Propylene Glycol as a solvent for the ivermectin. According to the Cosmetic Ingredients Report Panel Meeting on Jun. 28-29, 2010, the ocular irritation of Propylene Glycol was determined using groups of 6 males and female New Zealand white albino rabbits.

Series [11] concerns New Zealand white albino rabbits. The note with it: undiluted, groups of 6 rabbits; cited from earlier work.

The structures appear in SMILES notation. Read-outs that look alike come from different tables or passages of the source.

With `Cc1c(C)c2c(c(C)c1O)CCC(C)(CCCC(C)CCCC(C)CCCC(C)C)O2` (racemic) [dl-α-tocopherol], in series [1] (rabbit, in vivo), the “conjunctival irritation (redness)” value is “Weak to moderate conjunctival irritation” and the “time by which conjunctival irritation subsided” value is ≤ 7 days. Besides, in [1] (undiluted, six rabbits, eyes not rinsed), the corneal changes result was “No corneal changes”.
With `O=C([O-])CN(CCN(CC(=O)[O-])CC(=O)O)CC(=O)O.[Na+].[Na+]` [Disodium EDTA, disodium EDTA], the “mucous membrane irritation classification” value in series [2] was “non-irritant”.
Regarding `O=C(O)CN(CCN(CC(=O)O)CC(=O)O)CC(=O)O` [EDTA, Ethylenediaminetetraacetic acid], the toxicity result in series [3] is “not toxic”.
As for `CCCCCCCCCCCCCCCCCC(=O)OCC(CC)CCCC` (centres unmarked) [Ethylhexyl Stearate], in series [4], the skin irritation entry is “at most mildly irritating”. Also, in series [5] (10% aqueous solution), the “mean maximum irritation index (MMII)” value is 0.33 and the skin tolerance entry was “relatively well tolerated”. Moreover, in series [5] (undiluted test material), the “mean maximum irritation index (MMII)” value is reported as 0.67 and the skin tolerance result is “poorly tolerated”. Also, the phototoxicity result in [6] (10 subjects) is “not phototoxic”. Besides, the photosensitisation result in [6] (27 subjects, some slight reactions reported) is given as “not a photosensitizer”. The irritation and sensitization entry in series [6] (56 subjects) is given as “not an irritant or sensitizer”. Besides, the eye injury entry in series [7] (undiluted test material) is recorded as “did not provoke any significant injury”. In series [7] (undiluted, out of 100, at 1 h), the “max Primary irritation Index (PII)” value is recorded as 4.67.
Take `CC[C@H](C)[C@H]1O[C@]2(CC[C@@H]1C)C[C@@H]1C[C@@H](C/C=C(\C)[C@@H](O[C@H]3C[C@H](OC)[C@@H](O[C@H]4C[C@H](OC)[C@@H](O)[C@H](C)O4)[C@H](C)O3)[C@@H](C)/C=C/C=C3\CO[C@@H]4[C@H](O)C(C)=C[C@@H](C(=O)O1)[C@]34O)O2` [Ivermectin (Stromectol), ivermectin]: the demodex mites result in series [8] (Example 2 patient, oral 12 mg plus 4 subsequent doses, with Tea Tree Oil eyelid scrubs twice a day, over 2 months) is recorded as “reduced in numbers but were not completely eliminated”. In addition, the “elimination of demodex mites” value in series [8] (oral, a single dose, applicant's experience) is given as “does not eliminate the demodex mites”. Besides, the treatment outcome in series [9] was “successfully treated”.
Turning to `CC(O)CO` (centres unmarked) [Propylene Glycol], the eye irritation result in series [10] is on record as “non-irritating”. Moreover, the ocular irritation result in [11] is listed as “slight eye irritant”.

The record behind these values is patent publication US12257263B2, “Pharmaceutical compositions for demodex related blepharitis and eyelid crusting” (Tarsus Pharmaceuticals, Inc., priority 2014, dated 2025).
